Measurements reported in patent US11571423B2, “Small molecule modulators of human sting” (Curadev Pharma Limited, priority 2017, dated 2023).
pEC50: −log10 of the molar value. Where a name gives a salt, the structure may show the parent alone. Read-outs that look alike come from different tables or passages of the source.

Assays:
hSTING(R232) = hSTING(R232) (Homo sapiens, UniProt Q86WV6, H232R); assay: Luciferase reporter assay in HEK293T-hSTING-Luciferase cells, R232 (wild type) human STING; assay type: cell-based; conditions: 20 hr stimulation
hSTING(R232), sequence (Q86WV6 whole entry H232R): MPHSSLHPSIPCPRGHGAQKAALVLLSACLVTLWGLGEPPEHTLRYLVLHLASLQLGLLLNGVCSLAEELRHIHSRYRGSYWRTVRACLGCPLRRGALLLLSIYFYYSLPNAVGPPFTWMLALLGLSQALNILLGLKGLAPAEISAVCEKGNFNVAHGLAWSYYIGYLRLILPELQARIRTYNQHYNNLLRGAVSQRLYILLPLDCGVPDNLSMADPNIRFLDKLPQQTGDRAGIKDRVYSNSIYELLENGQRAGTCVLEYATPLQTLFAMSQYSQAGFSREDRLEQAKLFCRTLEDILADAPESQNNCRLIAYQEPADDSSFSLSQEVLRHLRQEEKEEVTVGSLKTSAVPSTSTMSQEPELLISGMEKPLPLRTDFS
Outline: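 Clonal HEK293T cells stably expressing STING from a pUNO-1 plasmid plus an ISRE/ISG54-driven secreted luciferase reporter; 5×10^5 cells stimulated with compound for 20 hr. Supernatant luciferase read by luminescence, giving fold-induction over baseline and EC50.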

hSTING(H232) = hSTING(H232) (Homo sapiens, UniProt Q86WV6); assay: Luciferase reporter assay in HEK293T-hSTING-Luciferase cells, H232/REF polymorph; assay type: cell-based; conditions: H232/REF polymorph of human STING, EC50 range class
hSTING(H232), sequence (Q86WV6 whole entry): as the sequence (Q86WV6 whole entry H232R) above, with R232H counted along it
Excerpt: (§1) Stable Cell Line Generation • a) Stable STING expressing cells—Stable HEK293T STING-expressing cell lines were generated using plasmids purchased from Invivogen, CA, USA, that contain STING cDNA cloned into the pUNO-1 vector under hEF1-HTLV promoter and containing the Blasticidin selection cassette. The plasmids hSTING(R232), hSTING(H232), hSTING(HAQ) were directly procured from Invivogen while hSTING (AQ) and hSTING (Q) were derived from hSTING(HAQ) and hSTING (R232) plasmids respectively by using a PCR based site directed mutagenesis method. These vectors were individually transfected into HEK293T cells using Lipofectamine (Invitrogen) and transfected cells were selected under Blasticidin selection. These transfected cells were further subjected to clonal selection using the limiting dilution method to obtain clonally pure populations of HEK cells transfected with each of the above mentioned human STING variants. Only those clones were selected in which ligand independent activation of STING was minimal. • b) Stable Luciferase reporter gene expressing cells—Stable HEK293T Luciferase reporter gene expressing cell lines were generated using pCDNA4 plasmids under an IRF-inducible promoter. This promoter is comprised of five tandem interferon-stimulated response elements (ISRE) fused to an ISG54 minimal promoter. This vector was transfected into HEK293T cells using Lipofectamine (Invitrogen) and transfected cells were selected under Zeocin selection. These transfected cells were further subjected to clonal selection using the limiting dilution method to obtain clonally pure populations of HEK cells transfected the Luciferase reporter construct. Only those clones were selected in which ligand independent induction of luciferase was minimal.
(§2) 5×10^5 clonally selected HEK293T-hSTING-Luciferase cells were seeded in 384-well plates in growth medium and stimulated with novel compounds. After 20 hr of stimulation supernatant were removed and secretary reporter gene activity were measured using the Quanti-Luc detection system (Invivogen) on a Spectramax i3X luminometer.
(§3) In the tables below, EC50 value ranges for exemplary compounds are given.
(§4) Single nucleotide polymorphisms of human STING have been described, which can affect the functional potency of compounds that modulate the activity of the STING protein (see Yi et. al., PLoS One, October 2013, 8(10), e77846). The 5 major polymorphisms of human STING are shown in FIG. 1, with their prevalence in human populations indicated.
(§5) The tables below show the potency of selected compounds of the invention against the most common polymorphisms.

hSTING(HAQ) = hSTING(HAQ) (Homo sapiens, UniProt Q86WV6, G230A/H232R/R293Q/R71H); assay: Luciferase reporter assay in HEK293T-hSTING-Luciferase cells, HAQ polymorph; assay type: cell-based; conditions: HAQ polymorph of human STING, EC50 range class
hSTING(HAQ), sequence (Q86WV6 whole entry R71H/G230A/H232R/R293Q): as the sequence (Q86WV6 whole entry H232R) above, with R71H, G230A, R293Q counted along it
Excerpt: as §1, §2, §3, §4, §5

IRF pathway = assay: Reporter gene expression assay in THP1-Dual cells, IRF axis (secreted Lucia luciferase); assay type: cell-based, human; conditions: Homo sapiens, 20 hr stimulation, EC50 range class, read-out: THP-IRF activity
Description: (§6) THP1-Dual™ cells (Invivogen) were derived from the human THP-1 monocyte cell line by stable integration of two inducible reporter constructs. As a result, THP1-Dual™ cells allow the simultaneous study of the NF-κB pathway, by monitoring the activity of secreted SEAP, and the IRF pathway, by assessing the activity of a secreted luciferase (Lucia). 5×10^5 THP1-Dual™ cells were seeded in 384-well plates in growth medium and stimulated with novel compounds. After 20 hr of stimulation supernatants were removed and reporter proteins were readily measured in the cell culture supernatant using QUANTI-Blue™ (Invivogen), a SEAP detection reagent, and QUANTI-Luc™ (Invivogen), a luciferase detection reagent on a Spectramax i3X luminometer.
(§7) EC50 value ranges for exemplary compounds tested in the above assay are given.

NF-κB pathway = assay: Reporter gene expression assay in THP1-Dual cells, NFkB axis (secreted SEAP); assay type: cell-based, human; conditions: Homo sapiens, 20 hr stimulation, EC50 range class, read-out: THP-NFκB activity
Description: as §6, §7

[1] = target: cynomolgus monkey STING protein (Macaca fascicularis, UniProt A0A2R3XZA6); assay: Luciferase reporter assay, cynomolgus monkey STING overexpressed in HEK293T cells; assay type: cell-based
cynomolgus monkey STING protein, sequence (A0A2R3XZA6 entry or part of it): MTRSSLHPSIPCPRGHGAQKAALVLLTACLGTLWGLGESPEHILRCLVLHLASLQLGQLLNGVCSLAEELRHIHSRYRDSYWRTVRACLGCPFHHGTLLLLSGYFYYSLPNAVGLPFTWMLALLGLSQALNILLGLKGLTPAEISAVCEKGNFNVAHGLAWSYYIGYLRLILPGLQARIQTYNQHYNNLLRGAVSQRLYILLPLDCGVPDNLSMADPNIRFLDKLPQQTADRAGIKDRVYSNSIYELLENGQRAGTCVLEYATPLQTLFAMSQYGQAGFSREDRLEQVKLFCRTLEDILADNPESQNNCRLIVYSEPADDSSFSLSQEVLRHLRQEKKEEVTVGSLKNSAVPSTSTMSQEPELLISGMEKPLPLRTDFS
Description: as §2, §3
Selected compounds were further tested against cynomolgus monkey STING protein overexpressed in HEK293T cells.

[2] = read-out: R232 human activity (EC50 range)
[3] = cynomolgus monkey STING overexpressed in HEK293T cells, read-out: Cynomolgus monkey STING activity (EC50 range)

## C[C@H]1c2ccc(C(=O)NCc3c(F)cc(F)cc3F)cc2N(Cc2cc(CO)ccc2F)C(=O)N1C (stereo in doubt) [Example 268, 1-(2-fluoro-5-(hydroxymethyl)benzyl)-3,4-dimethyl-2-oxo-N-(2,4,6-trifluorobenzyl)-1,2,3,4-tetrahydroquinazoline-7-carboxamide]
hSTING(R232); [2]
  pEC50: > 6.00
hSTING(H232)
  pEC50: 5.00 to 6.00
hSTING(HAQ)
  pEC50: 5.00 to 6.00
IRF pathway
  pEC50: 5.00 to 6.00
NF-κB pathway
  pEC50: 5.00 to 6.00

## Cc1ncc(CN2C(=O)N(C)Cc3ccc(C(=O)NCc4c(F)cc(F)cc4F)cc32)s1 [Example 20, 3-methyl-1-((2-methylthiazol-5-yl)methyl)-2-oxo-N-(2,4,6-trifluorobenzyl)-1,2,3,4-tetrahydroquinazoline-7-carboxamide]
hSTING(R232); [2]
  pEC50: 5.00 to 6.00
hSTING(H232)
  pEC50: 5.00 to 6.00
hSTING(HAQ)
  pEC50: 5.00 to 6.00
IRF pathway
  pEC50: 5.00 to 6.00
NF-κB pathway
  pEC50: 5.00 to 6.00

## Cc1cccc(-c2nc(CN3C(=O)N(C)Cc4ccc(C(=O)NCc5c(F)cc(F)cc5F)cc43)c(C)o2)c1 [Example 38, 3-methyl-1-((5-methyl-2-(m-tolyl)oxazol-4-yl)methyl)-2-oxo-N-(2,4,6-trifluorobenzyl)-1,2,3,4-tetrahydroquinazoline-7-carboxamide]
hSTING(R232); [2]
  pEC50: > 6.00
hSTING(H232)
  pEC50: 5.00 to 6.00
hSTING(HAQ)
  pEC50: 5.00 to 6.00
IRF pathway
  pEC50: < 5.00
NF-κB pathway
  pEC50: 5.00 to 6.00

## CN1Cc2ccc(C(=O)NCc3c(F)cc(F)cc3F)cc2N(Cc2c(F)cccc2C#N)C1=O [Example 39, 1-(2-cyano-6-fluorobenzyl)-3-methyl-2-oxo-N-(2,4,6-trifluorobenzyl)-1,2,3,4-tetrahydroquinazoline-7-carboxamide]
hSTING(R232); [2]
  pEC50: 5.00 to 6.00
hSTING(H232)
  pEC50: < 5.00
hSTING(HAQ)
  pEC50: < 5.00
IRF pathway
  pEC50: < 5.00
NF-κB pathway
  pEC50: < 5.00

## Cc1cc(CN2C(=O)N(C)Cc3ccc(C(=O)NCc4c(F)cc(F)cc4F)cc32)on1 [Example 54, 3-methyl-1-((3-methylisoxazol-5-yl)methyl)-2-oxo-N-(2,4,6-trifluorobenzyl)-1,2,3,4-tetrahydroquinazoline-7-carboxamide]
hSTING(R232); [2]
  pEC50: 5.00 to 6.00
hSTING(H232)
  pEC50: 5.00 to 6.00
hSTING(HAQ)
  pEC50: 5.00 to 6.00
IRF pathway
  pEC50: 5.00 to 6.00
NF-κB pathway
  pEC50: 5.00 to 6.00

## CC1c2ncc(C(=O)NCc3c(F)cc(F)cc3F)cc2N(Cc2c(F)cccc2Cl)C(=O)N1C (stereo not drawn) [Example 148, 1-(2-Chloro-6-fluorobenzyl)-3,4-dimethyl-2-oxo-N-(2,4,6-trifluorobenzyl)-1,2,3,4-tetrahydropyrido[3,2-d]pyrimidine-7-carboxamide]
hSTING(R232); [2]
  pEC50: > 6.00
hSTING(H232)
  pEC50: > 6.00
hSTING(HAQ)
  pEC50: > 6.00
IRF pathway
  pEC50: 5.00 to 6.00
NF-κB pathway
  pEC50: 5.00 to 6.00

## COc1cccc(F)c1CN1C(=O)N(C)C(C)c2ccc(C(=O)NCc3c(F)cc(F)cc3F)cc21 (stereo not drawn) [Example 153, 1-(2-fluoro-6-methoxybenzyl)-3,4-dimethyl-2-oxo-N-(2,4,6-trifluorobenzyl)-1,2,3,4-tetrahydroquinazoline-7-carboxamide]
hSTING(R232); [2]
  pEC50: > 6.00
hSTING(H232)
  pEC50: > 6.00
hSTING(HAQ)
  pEC50: > 6.00
IRF pathway
  pEC50: > 6.00
NF-κB pathway
  pEC50: > 6.00

## CC1c2ccc(C(=O)NCc3c(F)cc(F)cc3F)cc2N(Cc2cc(C(N)=O)ccc2F)C(=O)N1C (stereo not drawn) [Example 167, 1-(5-carbamoyl-2-fluorobenzyl)-3,4-dimethyl-2-oxo-N-(2,4,6-trifluorobenzyl)-1,2,3,4-tetrahydroquinazoline-7-carboxamide]
hSTING(R232); [2]
  pEC50: > 6.00
hSTING(H232)
  pEC50: < 5.00
hSTING(HAQ)
  pEC50: < 5.00
IRF pathway
  pEC50: < 5.00
NF-κB pathway
  pEC50: < 5.00

## CC1c2ccc(C(=O)NCc3c(F)cc(F)cc3F)cc2N(Cc2c(F)cccc2Br)C(=O)N1C (stereo not drawn) [Example 193, 1-(2-bromo-6-fluorobenzyl)-3,4-dimethyl-2-oxo-N-(2,4,6-trifluorobenzyl)-1,2,3,4-tetrahydroquinazoline-7-carboxamide]
hSTING(H232)
  pEC50: > 6.00
hSTING(HAQ)
  pEC50: > 6.00
IRF pathway
  pEC50: > 6.00
NF-κB pathway
  pEC50: > 6.00

## C[C@H]1c2ccc(C(=O)NCc3c(F)cc(F)cc3F)cc2N(Cc2cc(OCCO)cc(F)c2F)C(=O)N1C [Example 282, (S)-1-(2,3-difluoro-5-(2-hydroxyethoxy)benzyl)-3,4-dimethyl-2-oxo-N-(2,4,6-trifluorobenzyl)-1,2,3,4-tetrahydroquinazoline-7-carboxamide]
hSTING(R232); [2]
  pEC50: > 6.00
[1]; [3]
  pEC50: 5.00 to 6.00

## C[C@H]1c2ccc(C(=O)NCc3c(F)cc(F)cc3F)cc2N(Cc2c(F)cc(N)cc2F)C(=O)N1C [Example 286, (S)-1-(4-amino-2,6-difluorobenzyl)-3,4-dimethyl-2-oxo-N-(2,4,6-trifluorobenzyl)-1,2,3,4-tetrahydroquinazoline-7-carboxamide]
hSTING(R232); [2]
  pEC50: > 6.00
[1]; [3]
  pEC50: > 6.00

## CC(O)c1ccc(F)c(CN2C(=O)N(C)[C@@H](C)c3ccc(C(=O)NCc4c(F)cc(F)cc4F)cc32)c1F (stereo partly drawn) [Example 289, (4S)-1-(2,6-difluoro-3-(1-hydroxyethyl)benzyl)-3,4-dimethyl-2-oxo-N-(2,4,6-trifluorobenzyl)-1,2,3,4-tetrahydroquinazoline-7-carboxamide]
hSTING(R232); [2]
  pEC50: > 6.00
[1]; [3]
  pEC50: 5.00 to 6.00

## C[C@H]1c2ccc(C(=O)NCc3c(F)cc(F)cc3F)cc2N(Cc2c(F)cc(OCCN3CCOCC3)cc2F)C(=O)N1C [Example 291, (S)-1-(2,6-difluoro-4-(2-morpholinoethoxy)benzyl)-3,4-dimethyl-2-oxo-N-(2,4,6-trifluorobenzyl)-1,2,3,4-tetrahydroquinazoline-7-carboxamide]
hSTING(R232); [2]
  pEC50: > 6.00
[1]; [3]
  pEC50: > 6.00

## C[C@H]1c2ccc(C(=O)NCc3c(F)cc(F)cc3F)cc2N(Cc2c(F)cc(OCCCC(=O)O)cc2F)C(=O)N1C [Example 294, (S)-4-(4-((3,4-dimethyl-2-oxo-7-((2,4,6-trifluorobenzyl)carbamoyl)-3,4-dihydroquinazolin-1(2H)-yl)methyl)-3,5-difluorophenoxy)butanoic acid]
hSTING(R232); [2]
  pEC50: > 6.00
[1]; [3]
  pEC50: > 6.00

## C[C@H]1c2ccc(C(=O)NCc3c(F)cc(F)cc3F)cc2N(Cc2c(F)cncc2F)C(=O)N1C [Example 295, (S)-1-((3,5-difluoropyridin-4-yl)methyl)-3,4-dimethyl-2-oxo-N-(2,4,6-trifluroobenzyl)-1,2,3,4-tetrahydroquinazoline-7-carboxamide]
hSTING(R232); [2]
  pEC50: > 6.00
[1]; [3]
  pEC50: > 6.00

## C[C@H]1c2ccc(C(=O)NCc3c(F)cc(F)cc3F)cc2N(Cc2c(F)cc(OCCN)cc2Cl)C(=O)N1C [Example 299, (S)-1-(4-(2-aminoethoxy)-2-chloro-6-fluorobenzyl)-3,4-dimethyl-2-oxo-N-(2,4,6-trifluorobenzyl)-1,2,3,4-tetrahydroquinazoline-7-carboxamide hydrochloride]
hSTING(R232); [2]
  pEC50: > 6.00
[1]; [3]
  pEC50: < 5.00

## CNCCN(C)C(=O)Oc1ccc(F)c(CN2C(=O)N(C)[C@@H](C)c3ccc(C(=O)NCc4c(F)cc(F)cc4F)cc32)c1Cl [Example 300, (S)-2-chloro-3-((3,4-dimethyl-2-oxo-7-((2,4,6-trifluorobenzyl)carbamoyl)-3,4-dihydroquinazolin-1(2H)-yl)methyl)-4-fluorophenyl-methyl(2-(methylamino)ethyl)carbamate hydrochloride]
hSTING(R232); R232 human activity (EC50 range)
  pEC50: > 6.00
[1]
  pEC50: > 6.00
